Among the data in patent US12428386B2, “Sphingosine 1 phosphate receptor modulators” (RECEPTOS LLC, priority 2020, dated 2025) are EC50 and Emax values, retold here.

One experiment addresses T1, S1P1 (Homo sapiens, UniProt P21453).
T1 construct: expressed in transfected cells; host or cells: CHO cell membranes
Nature of the experiment: [35S]-GTPγS binding assay, CHO-S1P receptor membranes, S1P1. It is filed as biochemical. The settings on record: CHO-S1P receptor membrane; for Emax: control S1P, read-out: S1P1 % Efficacy. Here is the method: (§1) Binding assays for [^35S]-GTPγS were performed in 96-well non-binding surface plates with a final volume of 200 μL. The test compounds were serial diluted in DMSO and added to assay plates using a Tecan D300E digital printer with a total volume of 0.4 μL. The control sphingosine-1-phosphate (S1P) was prepared separately by preparing a 400 μM stock solution from a 100 nmol pellet of S1P in 10 mM Na2CO3 with 2% β-cyclodextrin. The serial dilution of S1P was done using complete assay buffer (20 mM HEPES, 10 mM MgCl2, 100 mM NaCl, 1 mM EDTA, 0.1% fatty acid free bovine serum albumin [BSA], and 30 μg/mL saponin, pH7.4) and transferred to wells already containing 0.4 μL DMSO. All the wells were then loaded to a total volume of 40 μL of complete assay buffer, except the non-specific binding (NSB) wells. For NSB wells, 40 μL/well of 50 μM GTPγS (Sigma Aldrich, cat# G8634, St. Louis, MO) was added to wells containing 0.4 μL of DMSO. The assay was started by the addition of 120 μL/well of CHO-S1P receptor membrane solution containing 40 μg/mL of membrane protein, 16.67 μM guanosine diphosphate (GDP; Sigma Aldrich, cat# G7127, St. Louis, MO), and 2.5 mg/mL of WGA PVT SPA beads in complete buffer. Assay plates were then sealed and incubated at room temperature with gentle agitation for 30 minutes. Next, 40 μL/well of 1 nM of [^35S]-GTPγS (PerkinElmer, cat# NEG030×250UC, Waltham, MA) in basic assay buffer (20 mM HEPES, 10 mM MgCl2, 100 mM NaCl, and 1 mM EDTA, pH7.4) was added to the assay plates to yield a final concentration of 200 pM and the plates were further incubated for 40 minutes at room temperature with gentle agitation. The assay was terminated by centrifugation of the plates at 1000 rpm for 3 minutes using an Eppendorf 5810R centrifuge (Eppendorf, Hamburg, Germany) and G protein bound radioactivity was quantitated using a MicroBeta2 microplate scintillation counter (PerkinElmer, Waltham, MA).
(GTPγS resists hydrolysis and so accumulates on activated G proteins.)

For another experiment, the target named is T2, S1P5 (Homo sapiens, UniProt Q9H228).
T2 construct: expressed in transfected cells; host or cells: CHO cell membranes
Nature of the experiment: [35S]-GTPγS binding assay, CHO-S1P receptor membranes, S1P5. The experiment is classed as biochemical. The settings on record: CHO-S1P receptor membrane; for Emax: control S1P, read-out: S1P5 % Efficacy. On the procedure: as §1

pEC50: −log10 of the molar value.

T1 sequence (P21453 whole entry, species assumed): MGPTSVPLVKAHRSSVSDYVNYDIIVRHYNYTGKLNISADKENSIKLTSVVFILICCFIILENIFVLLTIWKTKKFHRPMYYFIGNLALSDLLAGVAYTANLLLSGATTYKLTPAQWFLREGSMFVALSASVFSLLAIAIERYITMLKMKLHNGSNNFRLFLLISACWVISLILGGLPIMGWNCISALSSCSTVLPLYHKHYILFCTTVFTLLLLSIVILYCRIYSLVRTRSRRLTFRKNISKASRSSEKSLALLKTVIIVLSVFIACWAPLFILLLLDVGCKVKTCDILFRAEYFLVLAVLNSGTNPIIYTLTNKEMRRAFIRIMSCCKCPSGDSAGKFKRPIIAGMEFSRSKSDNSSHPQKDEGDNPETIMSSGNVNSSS
T2 sequence (Q9H228 whole entry, species assumed): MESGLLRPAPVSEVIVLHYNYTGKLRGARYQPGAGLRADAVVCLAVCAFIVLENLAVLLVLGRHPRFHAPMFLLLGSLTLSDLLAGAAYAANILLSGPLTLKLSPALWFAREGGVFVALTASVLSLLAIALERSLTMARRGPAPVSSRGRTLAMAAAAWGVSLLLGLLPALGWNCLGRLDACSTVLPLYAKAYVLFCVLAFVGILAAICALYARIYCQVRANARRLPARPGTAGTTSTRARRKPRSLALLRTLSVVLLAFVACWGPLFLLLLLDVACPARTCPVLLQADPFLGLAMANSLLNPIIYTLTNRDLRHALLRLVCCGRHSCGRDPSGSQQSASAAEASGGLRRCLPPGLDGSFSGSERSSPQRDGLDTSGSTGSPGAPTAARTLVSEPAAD

On to `COC1=CCc2c1cccc2-c1noc(-c2ccc(OC(C)C)c(C#N)c2)n1` [compound 2, 2-isopropoxy-5-(3-(3-methoxy-1H-inden-7-yl)-1,2,4-oxadiazolyl)benzonitrile], for which, at S1P1, the negative logarithm of the EC50 (pEC50) was 7.74 and the Emax was found to be 87%. On S1P5, the pEC50 was 6.83 and the Emax worked out at 33%.

As for `CCOC1=CCc2c1cccc2-c1noc(-c2ccc(OC(C)C)c(C#N)c2)n1` [compound 3, 5-(3-(3-ethoxy-1H-inden-7-yl)-1,2,4-oxadiazol-5-yl)-2-isopropoxy-benzonitrile], on S1P1, the negative-log EC50 (pEC50) was 7.49 and the Emax stood at 92%. For the same compound, at S1P5, the negative logarithm of the EC50 (pEC50) is 6.57 and the Emax was found to be 68%.

`CC(C)OC1=CCc2c1cccc2-c1noc(-c2ccc(OC(C)C)c(C#N)c2)n1` [compound 4, 2-isopropoxy-5-(3-(3-isopropoxy-1H-inden-7-yl)-1,2,4-oxadiazol-5-yl)-benzonitrile]: on S1P1, the pEC50 was 8.15 and the Emax came out at 86%. Besides, at S1P5, the negative-log EC50 (pEC50) was 6.82 and the Emax turned out to be 79%.

Broadly, the pEC50 is −log10 of the EC50, conventionally taken in molar units. Read a high pEC50 as a low EC50.
